The values below are quoted from earlier work in patent US20110206693A1, “LYSINE RIBOSWITCH AND COMPOSITIONS AND USES THEREOF” (priority 2008, published 2011).

Molecules are shown by their SMILES.

For one data set, the system named is lysine riboswitch. Conditions: binding to the riboswitch RNA, relative to lysine; Sudarsan 2003 and Blount 2007.
Turning to `NCCSC[C@H](N)C(=O)O` [AEC, S-(2-aminoethyl)-L-cysteine], the “lower affinity than lysine for the RNA” value was 30 fold. In the case of `NCCS(=O)(=O)C[C@H](N)C(=O)O` [AESA, L-3-[(2-aminoethyl)-sulfonyl]-alanine], the “lower affinity than lysine for the RNA” value is given as 7 fold.

The data set is the same for the next values; noted with them: qualitative, compared with lysine.
Consider `C[N+](C)(C)CCCC[C@H](N)C(=O)[O-]` [N^6-trimethyl-L-lysine], for which the “binding / recognition by the lysine riboswitch (in words)” value (“binding / recognition” below) is “precludes efficient recognition”.

On to `NCCCCC[C@H](N)C(=O)O` [L-α-homolysine], for which the “binding / recognition” value is “not efficiently bound”. As to `N=C(N)NCCCC[C@H](N)C(=O)O` [homoarginine], the “binding / recognition” value is given as “precludes efficient recognition”. With `NCCC[C@H](N)C(=O)O` [L-ornithine], the “binding / recognition” value is on record as “not efficiently bound”.
